# Data as given in patent US10375956B2, “Herbicidally active 2-(substituted-phenyl)-cyclopentane-1,3-dione compounds and derivatives thereof” (Syngenta Limited, priority 2013, dated 2019).
# Tests used:
# Assay type in all cases: in vivo
# [1] = system: Amaranthus retroflexus (AMARE); assay: Test 1 glasshouse assay, pre-emergence herbicidal activity; conditions: 312 h, visual evaluation after 13 days, read-out: Percentage phytotoxicity AMARE
# Method in brief: (§1)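 Seeds sown in standard soil were sprayed one day after sowing with active ingredient in acetone/water (50:50) plus 0.5% Tween 20. Plants grew in a glasshouse at 24/16° C day/night, 14 h light, 65% humidity, watered twice daily; phytotoxicity was scored visually after 13 days (0–100%).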
# [2] = system: Echinochloa crus-galli (ECHCG); assay: as above; conditions: 312 h, visual evaluation after 13 days, read-out: Percentage phytotoxicity ECHCG
# Method in brief: as §1
# [3] = system: Abutilon theophrasti (ABUTH); assay: Test 1 glasshouse assay, post-emergence herbicidal activity; conditions: 312 h, post-emergence (Example 1B Table 1), after 13 days, read-out: Percentage phytotoxicity ABUTH
# Method in brief: (§2)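 Plants sprayed post-emergence after 8 days' growth with active ingredient in acetone/water (50:50) plus 0.5% Tween 20; glasshouse at 24/16° C day/night, 14 h light, 65% humidity. Visual percentage phytotoxicity scored 13 days later (100% = total damage, 0% = none).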
# [4] = system: Amaranthus retroflexus (AMARE); assay: as above; conditions: 312 h, post-emergence (Example 1B Table 1), after 13 days, read-out: Percentage phytotoxicity AMARE
# Method in brief: as §2
# [5] = system: Setaria faberi (SETFA); assay: as above; conditions: 312 h, post-emergence (Example 1B Table 1), after 13 days, read-out: Percentage phytotoxicity SETFA
# Method in brief: as §2
# [6] = system: Zea mays (ZEAMX, corn/maize); assay: as above; conditions: 312 h, post-emergence (Example 1B Table 1), after 13 days, read-out: Percentage phytotoxicity ZEAMX
# Method in brief: as §2
# [7] = system: Lolium perenne (LOLPE); assay: Test 2 glasshouse assay (IF50 formulation, X-77), pre-emergence herbicidal activity; conditions: 480 h, 250 g/ha, 20DAA, read-out: Percentage phytotoxicity LOLPE
# Procedure: Seeds of a variety of monocotyledonous and dicotyledonous test plants are sown in standard soil in pots. The plants are cultivated for one day (for pre-emergence) or for about 12 days (for post-emergence) under controlled conditions in a glasshouse (warm climate species at 24/18° C., cool climate species at 20/16° C., both at day/night; 16 hours light; 65% humidity).
# An “instant formulation”, known as the “IF50”, containing 50 g/liter (i.e. 5% w/v) of the “technical” (i.e. unformulated) active ingredient is prepared by dissolving the active ingredient in a mixture of organic solvents and emulsifier, details of which are provided in the Table below. This IF50 is then mixed with a small, variable amount of acetone to aid dissolution, before addition of a 0.2% v/v aqueous solution of the adjuvant X-77 (which is a mixture of alkyl aryl polyoxyethylene glycols and free fatty acids in isopropanol, CAS Registry number 11097-66-8), as the aqueous diluent, to form an aqueous spray solution which contains a predetermined concentration of the active ingredient (which varies depending on the application rate of the active ingredient to the plants) and 0.2% v/v of the adjuvant X-77. This aqueous spray solution is then sprayed onto the plants, after one day's cultivation (for pre-emergence), or after about 12 days' cultivation (range=10-13 days) (for post-emergence).
# The test plants are then grown on, in a glasshouse (greenhouse) under controlled conditions (warm climate species at 24/18° C., cool climate species at 20/16° C., both at day/night; 16 hours light; 65% humidity) and are watered twice daily. 15 days after application of the test herbicide (15DAA) (for post-emergence), and 20 days after application of the test herbicide (20DAA) (for pre-emergence), the test plants are evaluated visually, and an assessed percentage phytotoxicity score is given for each herbicidal application on each plant species (with 100%=total damage to plant; 0%=no damage to plant).
# Cool climate (“cool season”) grassy monocotyledonous weeds: Alopecurus myosuroides (ALOMY), Avena fatua (AVEFA), Lolium perenne (LOLPE).
Compound,pest or weed control at 250 g/ha [1],pest or weed control at 250 g/ha [2],pest or weed control at 62.5 g/ha [3],pest or weed control at 250 g/ha [3],pest or weed control at 62.5 g/ha [4],pest or weed control at 250 g/ha [4],pest or weed control at 62.5 g/ha [5],pest or weed control at 250 g/ha [5],pest or weed control at 62.5 g/ha [6],pest or weed control at 250 g/ha [6],pest or weed control at 250 g/ha [7],pest or weed control at 30 g/ha [3],pest or weed control at 30 g/ha [4],pest or weed control at 30 g/ha [5],pest or weed control at 30 g/ha [6]
C#CCC1CC(=O)C(c2c(F)cc(-c3ccc(Cl)cc3)cc2OC)C1=O (stereo not drawn) [Compound A14],90%,100%,0%,0%,50%,60%,90%,100%,100%,100%,70%,,,,
C#CCC1CC(=O)C(c2c(C)cc(-c3ncc(Cl)cc3F)cc2C)C1=O (stereo not drawn) [Compound A3],60%,100%,80%,90%,60%,90%,100%,100%,100%,100%,80%,,,,
C#CCC1CC(=O)C(c2c(F)cc(-c3ccc(Cl)cn3)cc2Cl)C1=O (stereo not drawn) [Compound A8],90%,100%,,80%,,90%,,100%,,100%,80%,70%,80%,100%,100%
"C#CCC1CC(=O)C(c2c(F)cc(-c3ccc(Cl)cc3)cc2Cl)C1=O (stereo not drawn) [Compound A6, 2-[2-chloro-4-(4-chlorophenyl)-6-fluorophenyl]-4-prop-2-ynylcyclopentane-1,3-dione]",90%,100%,,70%,,70%,,100%,,100%,30%,40%,60%,100%,100%
C#CCC1CC(=O)C(c2c(C)cc(-c3ccc(Cl)cn3)cc2C)C1=O (stereo not drawn) [Compound A2],90%,100%,70%,80%,70%,70%,100%,100%,100%,100%,80%,,,,
C#CCC1CC(=O)C(c2c(F)cc(-c3ccc(F)c(F)c3)cc2OC)C1=O (stereo not drawn) [Compound A22],30%,100%,,40%,,80%,,100%,,100%,20%,0%,10%,90%,100%
